Source: patent publication US8003785B2 (Takeda Pharmaceutical Company Limited, priority 2008, dated 2011)
pIC50: −log10 of the molar value.

Target: T1, PLK1 (Homo sapiens, UniProt P53350)
T1 construct: Full-length, active GST-PLK1 is purified from Sf9 insect cells; made in house; host or cells: Sf9 insect cells
Test: Biochemical Characterization Assay: HTRF kinase assay, GST-PLK1 phosphorylation of GST-p53
Settings: GST-PLK1, GST-p53 substrate
Method in brief: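 HTRF read-out of p53 phosphorylation: after EDTA stop, anti-phospho-p53 antibody bound 30 min at 37 °C in HEPES pH 7 buffer, with Eu-anti-rabbit/APC-anti-GST detection. Kinase step used full-length Sf9-expressed GST-PLK1 (3 ug/mL) and E. coli GST-p53 substrate, 35 min at 37 °C.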

T1 sequence (P53350 whole entry): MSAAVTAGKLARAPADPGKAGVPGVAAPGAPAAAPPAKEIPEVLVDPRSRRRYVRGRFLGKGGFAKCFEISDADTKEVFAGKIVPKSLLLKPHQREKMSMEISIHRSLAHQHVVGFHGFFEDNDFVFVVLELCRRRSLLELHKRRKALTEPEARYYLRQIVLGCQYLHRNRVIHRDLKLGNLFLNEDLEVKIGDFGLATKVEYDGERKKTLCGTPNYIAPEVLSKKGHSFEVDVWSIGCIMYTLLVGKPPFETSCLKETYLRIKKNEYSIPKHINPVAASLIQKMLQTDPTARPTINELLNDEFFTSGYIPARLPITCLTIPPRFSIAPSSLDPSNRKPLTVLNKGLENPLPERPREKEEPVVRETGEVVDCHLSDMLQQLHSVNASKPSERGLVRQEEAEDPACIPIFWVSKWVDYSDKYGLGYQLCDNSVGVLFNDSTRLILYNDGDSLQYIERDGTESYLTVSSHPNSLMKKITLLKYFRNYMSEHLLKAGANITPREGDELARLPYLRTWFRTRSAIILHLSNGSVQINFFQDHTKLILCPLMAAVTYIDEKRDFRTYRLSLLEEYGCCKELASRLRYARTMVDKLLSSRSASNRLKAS

## COc1cc(C(=O)NCCCN2CCCCC2)ccc1Nc1ncc2c(n1)N(C1CCCC1)CC(F)(F)C(=O)N2C [Example I-84, 4-(9-cyclopentyl-7,7-difluoro-5-methyl-6-oxo-6,7,8,9-tetrahydro-5H-pyrimido[4,5-b][1,4]diazepin-2-ylamino)-3-methoxy-N-(3-piperidin-1-yl-propyl)-benzamide]
ATP
  pIC50: 7.30 to 9.00

## COc1cc(C(=O)O)ccc1Nc1ncc2c(n1)N(CCCc1ccccc1)CC(F)(F)C(=O)N2C [Example I-281, 4-[7,7-difluoro-5-methyl-6-oxo-9-(3-phenyl-propyl)-6,7,8,9-tetrahydro-5H-pyrimido[4,5-b][1,4]diazepin-2-ylamino]-3-methoxy-benzoic acid]
  pIC50: 6.30 to 7.29

## CN1C(=O)C(F)(F)CN(C2CCC2)c2nc(Nc3ccc(C(=O)O)cc3)ncc21 [Example I-11, 4-(9-cyclobutyl-7,7-difluoro-5-methyl-6-oxo-6,7,8,9-tetrahydro-5H-pyrimido[4,5-b][1,4]diazepin-2-ylamino)-benzoic acid]
ATP
  pIC50: 6.30 to 7.29

## CNC(=O)c1cc(OC)c(Nc2ncc3c(n2)N(C2CCCC2)CC(F)(F)C(=O)N3C)cc1F [Example I-171, 4-(9-cyclopentyl-7,7-difluoro-5-methyl-6-oxo-6,7,8,9-tetrahydro-5H-pyrimido[4,5-b][1,4]diazepin-2-ylamino)-2-fluoro-5-methoxy-N-methyl-benzamide]
  pIC50: 7.30 to 9.00

## CCOc1cc(C(=O)NC2CCNCC2)ccc1Nc1ncc2c(n1)N(C1CCCC1)CC(F)(F)C(=O)N2C [Example I-222, 4-(9-cyclopentyl-7,7-difluoro-5-methyl-6-oxo-6,7,8,9-tetrahydro-5H-pyrimido[4,5-b][1,4]diazepin-2-ylamino)-3-ethoxy-N-piperidin-4-yl-benzamide]
  pIC50: 7.30 to 9.00

## CN(C)CCCNC(=O)c1ccc(Nc2ncc3c(n2)N(C2CCCC2)CC(F)(F)C(=O)N3)cc1 [Example I-135, 4-(9-cyclopentyl-7,7-difluoro-6-oxo-6,7,8,9-tetrahydro-5H-pyrimido[4,5-b][1,4]diazepin-2-yl-amino)-N-(3-dimethyl-amino-propyl)-benzamide]
ATP
  pIC50: 5.30 to 6.30

## COc1cc(C(=O)NCC(F)(F)F)ccc1Nc1ncc2c(n1)N(C1CCCC1)CC(F)(F)C(=O)N2C [Example I-31, 4-(9-cyclopentyl-7,7-difluoro-5-methyl-6-oxo-6,7,8,9-tetrahydro-5H-pyrimido[4,5-b][1,4]diazepin-2-ylamino)-3-methoxy-N-(2,2,2-trifluoro-ethyl)-benzamide]
ATP
  pIC50: 7.30 to 9.00

## CN1C(=O)C(F)(F)CN(C2CCCCC2)c2nc(Nc3ccc(C(=O)NC4CCNCC4)cc3)ncc21 [Example I-260, 4-(9-cyclohexyl-7,7-difluoro-5-methyl-6-oxo-6,7,8,9-tetrahydro-5H-pyrimido[4,5-b][1,4]diazepin-2-ylamino)-N-piperidin-4-yl-benzamide]
  pIC50: 7.30 to 9.00

## COc1cc(C(=O)NC2CCN(CCO)CC2)ccc1Nc1ncc2c(n1)N(C1CCCCC1)CC(F)(F)C(=O)N2C [Example I-267, 4-(9-cyclohexyl-7,7-difluoro-5-methyl-6-oxo-6,7,8,9-tetrahydro-5H-pyrimido[4,5-b][1,4]diazepin-2-ylamino)-N-[1-(2-hydroxy-ethyl)-piperidin-4-yl]-3-methoxy-benzamide]
  pIC50: 7.30 to 9.00

## CCN1C(=O)C(F)(F)CN(C2CCCC2)c2nc(Nc3ccc(C(N)=O)cc3)ncc21 [Example I-139, 4-(9-cyclopentyl-5-ethyl-7,7-difluoro-6-oxo-6,7,8,9-tetrahydro-5H-pyrimido[4,5-b][1,4]diazepin-2-ylamino)-benzamide]
ATP
  pIC50: 5.30 to 6.30

## COc1cc(C(=O)NC2CCN(C(=O)C(C)(C)N)CC2)ccc1Nc1ncc2c(n1)N(C1CCCC1)CC(F)(F)C(=O)N2C [Example I-88, N-[1-(2-amino-2-methyl-propionyl)-piperidin-4-yl]-4-(9-cyclopentyl-7,7-difluoro-5-methyl-6-oxo-6,7,8,9-tetrahydro-5H-pyrimido[4,5-b][1,4]diazepin-2-ylamino)-3-methoxy-benzamide]
ATP
  pIC50: 7.30 to 9.00

## CN(C)CCCNC(=O)c1ccc(Nc2ncc3c(n2)N(C2CCCCC2)CC(F)(F)C(=O)N3C)cc1 [Example I-265, 4-(9-cyclohexyl-7,7-difluoro-5-methyl-6-oxo-6,7,8,9-tetrahydro-5H-pyrimido[4,5-b][1,4]diazepin-2-ylamino)-N-(3-dimethylamino-propyl)-benzamide]
  pIC50: 7.30 to 9.00

## COc1cc(C(=O)NCCc2ccc3c(c2)OCO3)ccc1Nc1ncc2c(n1)N(C1CCCC1)CC(F)(F)C(=O)N2C [Example I-43, N-(2-benzo[1,3]dioxol-5-yl-ethyl)-4-(9-cyclopentyl-7,7-difluoro-5-methyl-6-oxo-6,7,8,9-tetrahydro-5H-pyrimido[4,5-b][1,4]diazepin-2-ylamino)-3-methoxy-benzamide]
ATP
  pIC50: 6.30 to 7.29

## CN1C(=O)C(F)(F)CN(C2CCCC2)c2nc(Nc3ccc(C(N)=O)cc3F)ncc21 [Example I-231, 4-(9-cyclopentyl-7,7-difluoro-5-methyl-6-oxo-6,7,8,9-tetrahydro-5H-pyrimido[4,5-b][1,4]diazepin-2-ylamino)-3-fluoro-benzamide]
  pIC50: 7.30 to 9.00

## CCc1cc(C(N)=O)ccc1Nc1ncc2c(n1)N(C1CCCC1)CC(F)(F)C(=O)N2C [Example I-203]
  pIC50: 7.30 to 9.00

## COc1cc(C(=O)NCCN(C)C)ccc1Nc1ncc2c(n1)N(C1CCCCC1)CC(F)(F)C(=O)N2C [Example I-253, 4-(9-cyclohexyl-7,7-difluoro-5-methyl-6-oxo-6,7,8,9-tetrahydro-5H-pyrimido[4,5-b][1,4]diazepin-2-ylamino)-N-(2-dimethylamino-ethyl)-3-methoxy-benzamide]
  pIC50: 7.30 to 9.00

## COc1cc(C(=O)NCc2ccsc2)ccc1Nc1ncc2c(n1)N(C1CCCC1)CC(F)(F)C(=O)N2C [Example I-33, 4-(9-cyclopentyl-7,7-difluoro-5-methyl-6-oxo-6,7,8,9-tetrahydro-5H-pyrimido[4,5-b][1,4]diazepin-2-ylamino)-3-methoxy-N-thiophen-3-ylmethyl-benzamide]
ATP
  pIC50: 6.30 to 7.29

## COc1cc(C(=O)NCCc2c[nH]c3ccccc23)ccc1Nc1ncc2c(n1)N(C1CCCC1)CC(F)(F)C(=O)N2C [Example I-51, 4-(9-cyclopentyl-7,7-difluoro-5-methyl-6-oxo-6,7,8,9-tetrahydro-5H-pyrimido[4,5-b][1,4]diazepin-2-ylamino)-N-[2-(1H-indol-3-yl)-ethyl]-3-methoxy-benzamide]
ATP
  pIC50: 6.30 to 7.29

## COc1cc(C(=O)NCCCN(C)C)ccc1Nc1ncc2c(n1)N(CCc1ccccc1)CC(F)(F)C(=O)N2C [Example I-279, 4-(7,7-difluoro-5-methyl-6-oxo-9-phenethyl-6,7,8,9-tetrahydro-5H-pyrimido[4,5-b][1,4]diazepin-2-ylamino)-N-(3-dimethylamino-propyl)-3-methoxy-benzamide]
  pIC50: 6.30 to 7.29

## COc1cc(C(=O)NC2CCNCC2)ccc1Nc1ncc2c(n1)N(C1CCCCC1)CC(F)(F)C(=O)N2C [Example I-251, 4-(9-cyclohexyl-7,7-difluoro-5-methyl-6-oxo-6,7,8,9-tetrahydro-5H-pyrimido[4,5-b][1,4]diazepin-2-ylamino)-3-methoxy-N-piperidin-4-yl-benzamide]
  pIC50: 7.30 to 9.00

## CN(C)CCNC(=O)c1ccc(Nc2ncc3c(n2)N(C2CCCC2)CC(F)(F)C(=O)N3C)c(C(F)(F)F)c1 [Example I-208, 4-(9-cyclopentyl-7,7-difluoro-5-methyl-6-oxo-6,7,8,9-tetrahydro-5H-pyrimido[4,5-b][1,4]diazepin-2-ylamino)-N-(2-dimethylamino-ethyl)-3-trifluoromethyl-benzamide]
  pIC50: 6.30 to 7.29

## CN1C(=O)C(F)(F)CN(C2CCCC2)c2nc(Nc3cc(F)c(C(=O)NC4CCNCC4)cc3F)ncc21 [Example I-240, 4-(9-cyclopentyl-7,7-difluoro-5-methyl-6-oxo-6,7,8,9-tetrahydro-5H-pyrimido[4,5-b][1,4]diazepin-2-ylamino)-2,5-difluoro-N-piperidin-4-yl-benzamide]
  pIC50: 7.30 to 9.00

## COc1cc(C(=O)NC2CCCCC2)ccc1Nc1ncc2c(n1)N(C1CCCC1)CC(F)(F)C(=O)N2C [Example I-27, N-cyclohexyl-4-(9-cyclopentyl-7,7-difluoro-5-methyl-6-oxo-6,7,8,9-tetrahydro-5H-pyrimido[4,5-b][1,4]diazepin-2-ylamino)-3-methoxy-benzamide]
ATP
  pIC50: 7.30 to 9.00

## COc1cc(C(=O)NC2CCOCC2)c(F)cc1Nc1ncc2c(n1)N(C1CCCC1)CC(F)(F)C(=O)N2C [Example I-173, 4-(9-cyclopentyl-7,7-difluoro-5-methyl-6-oxo-6,7,8,9-tetrahydro-5H-pyrimido[4,5-b][1,4]diazepin-2-ylamino)-2-fluoro-5-methoxy-N-(tetrahydropyran-4-yl)-benzamide]
  pIC50: 7.30 to 9.00

## COc1cc(C(=O)NCCCN(C)C)ccc1Nc1ncc2c(n1)N([C@@H]1C[C@H]1c1ccccc1)CC(F)(F)C(=O)N2C (relative stereo) [Example I-290, 4-[7,7-difluoro-5-methyl-6-oxo-9-(trans-2-phenyl-cyclopropyl)-6,7,8,9-tetrahydro-5H-pyrimido[4,5-b][1,4]diazepin-2-ylamino]-N-(3-dimethylamino-propyl)-3-methoxy-benzamide]
  pIC50: 6.30 to 7.29

## COc1cc(C(=O)N[C@@H]2CCNC[C@@H]2OC)ccc1Nc1ncc2c(n1)N(C1CCCC1)CC(F)(F)C(=O)N2C (racemic) [Example I-57, rac-(3S,4R)-4-(9-cyclopentyl-7,7-difluoro-5-methyl-6-oxo-6,7,8,9-tetrahydro-5H-pyrimido[4,5-b][1,4]diazepin-2-ylamino)-3-methoxy-N-(3-methoxy-piperidin-4-yl)-benzamide]
ATP
  pIC50: 7.30 to 9.00

## COc1cc(C(=O)N2CCC(N)CC2)ccc1Nc1ncc2c(n1)N(C1CCC1)CC(F)(F)C(=O)N2C [Example I-6, 2-[4-(4-amino-piperidine-1-carbonyl)-2-methoxy-phenylamino]-9-cyclobutyl-7,7-difluoro-5-methyl-5,7,8,9-tetrahydro-pyrimido[4,5-b][1,4]diazepin-6-one]
ATP
  pIC50: 6.30 to 7.29
